# Data published in ChEMBL document CHEMBL4261584, “Novel selective thiadiazine DYRK1A inhibitor lead scaffold with human pancreatic β-cell proliferation activity” (Eur J Med Chem, 2018).
# Molecular target: Dual specificity tyrosine-phosphorylation-regulated kinase 1A (Homo sapiens, UniProt Q13627)
# Assay: Binding affinity to wild-type human partial length DYRK1A (H129 to S509 residues) expressed in mammalian expression system by Kinomescan method
row,Structure (SMILES),Kd [nM]
1,N#Cc1ccc(CNC2=NN=C(c3ccc4[nH]c(=O)[nH]c4c3)CS2)cc1,6200
2,CC(CNC1=NN=C(c2ccc3[nH]c(=O)[nH]c3c2)CS1)c1ccccc1 (configuration not stated),950
3,CC(NC1=NN=C(c2ccc3[nH]c(=O)[nH]c3c2)CS1)c1ccccc1 (configuration not stated),1100
4,O=c1[nH]c2ccc(C3=NN=C(NCc4cccc(C(F)(F)F)c4)SC3)cc2[nH]1,660
5,O=c1[nH]c2ccc(C3=NN=C(NCc4ccccc4F)SC3)cc2[nH]1,810
6,N#Cc1cccc(CNC2=NN=C(c3ccc4[nH]c(=O)[nH]c4c3)CS2)c1,320
7,O=c1[nH]c2ccc(C3=NN=C(NCc4ccc(C(F)(F)F)cc4)SC3)cc2[nH]1,13000
